Test results from paper PMC11343806 (Journal of Biological Inorganic Chemistry, 2024).

Columns and labels:
[1] = test system: C. difficile strain VPI10463 (ATCC 43255), metronidazole-sensitive; experiment: Antibacterial effects against C. difficile (anaerobic growth curves, OD600); assay type: cell-based, Clostridioides difficile
Protocol: (§1) (provided by Ulrich Nübel, DSMZ Braunschweig) were maintained in prereduced BHIS medium (37 g/L BHI, oxoid, 5% yeast extract, 1% L-cysteine) in a Coy-Laboratories anaerobic chamber (85% N2, 10% CO2, 5% H2) at 37 °C. Freshly prepared cultures were incubated until the exponential growth phase (OD600 = 0.2–0.4) and were adjusted to 1 × 10^6 cfu/mL before inoculation. The test compounds were dissolved in DMSO and by two-fold dilution steps concentrations in the range from 200 µM to 0.39 µM in BIHS medium were obtained. The solutions (100µL) were added to 100 µL of a diluted C. difficile culture (total volume: 200 µL in BIHS, 5 × 10^5 C. difficile, 100–0.195 µM test compound per well). The OD600-values over a period of 48 h were measured with a LogPhase 600 4-plate reader (BioTek) and compared with blank BHIS.

[2] = test system: C. difficile strain IB136 (NCTC 14385), metronidazole-resistant; experiment: as above; assay type: cell-based, Clostridioides difficile
Protocol: as §1

[3] = test system: C. difficile strain 1296^ T (DSM 1296), metronidazole-sensitive; experiment: as above; assay type: cell-based, Clostridioides difficile; conditions: strain 1296T
Protocol: as §1

[4] = Solubility observations
[5] = test system: Vero E6 non-tumorigenic epithelial kidney cells; experiment: Antiproliferative assay (crystal violet); assay type: cell-based, African green monkey; conditions: 72 h exposure; ± standard deviation, n = 2–4; read-out: IC50, antiproliferative effects, Vero E6
Protocol: (§2) The antiproliferative effects were determined according to a previously published procedure. A volume of 100 µL of cell suspension of A549 cells, MDA-MB-231, HT-29 or Vero E6 cells was transferred into the wells of a 96-well plates and incubated at 37 °C under 5% CO2 for 72 h. […] The results were calculated as the mean values of three independent experiments, unless stated otherwise.

[6] = test system: A-549, HT-29, MDA-MB-231 and Vero E6 cells; experiment: Antiproliferative assay, summary over all cell lines; assay type: cell-based; conditions: all four cell lines; for 2c except MDA-MB-231; read-out: IC50 values, antiproliferative effects, all cell lines
Protocol: as §2

[7] = test system: aerobic Gram-positive and Gram-negative pathogenic bacteria strains; experiment: MIC, summary over the panel of aerobic bacteria; assay type: cell-based
Protocol: (§3) The following strains were used and maintained at 37 °C in MHB (21 g/L Müller Hinton, pH 7.4) or TSY (30 g/L trypticase soy broth, 3 g/L yeast extract, pH 7.0–7.2) medium. Acinetobacter baumannii (DSM 30007, ATCC 19606) in MHB, Escherichia coli (DSM1116, ATCC 9637) in TSY, Klebsiella pneumoniae (DSM 11678, ATCC33495) in MHB, Pseudomonas aeruginosa PA7 (DSM 24068) in MHB, Enterococcus faecium (DSM 20477, ATCC 19434) in TSY, Staphylococcus aureus MRSA (DSM 11822, ICB 25701) in TSY). Minimum inhibitory concentration (MIC) values were determined following a standardized protocol in broth dilution assays. […] Starting inocula of 2–8 × 10^5 colony-forming units per ml in MHB or TSY media at 37 °C were used, and serial dilutions were carried out in 384-well microtiter plates in duplicate. […] The MIC values for the tested compounds were determined in three independent experiments by a curve-fitting procedure using the GraphPad Prism software (Graphpad Software, Inc.).

[8] = test system: MDA-MB-231 breast cancer cells; experiment: Antiproliferative assay (crystal violet); assay type: cell-based, human; conditions: 96 h exposure; ± standard deviation, n = 2–4; read-out: IC50, antiproliferative effects, MDA-MB-231
Protocol: as §2

[9] = test system: HT-29 colon carcinoma cells; experiment: Antiproliferative assay (crystal violet); assay type: cell-based, human; conditions: 72 h exposure; ± standard deviation, n = 2–4; read-out: IC50, antiproliferative effects, HT-29
Protocol: as §2

[10] = test system: A-549 lung cancer cells; experiment: Antiproliferative assay (crystal violet); assay type: cell-based, human; conditions: 72 h exposure; ± standard deviation, n = 2–4; read-out: IC50, antiproliferative effects, A-549
Protocol: as §2

[11] = biological target: T1, bacterial TrxR from E. coli (Escherichia coli, UniProt P0A9P4); experiment: Inhibition of bacterial TrxR (E. coli), DTNB/5-TNB assay; assay type: biochemical; conditions: purified enzyme, 75 min incubation at 25 °C; means and standard deviations
T1 construct: purchased Sigma-Aldrich
T1 sequence (P0A9P4 whole entry): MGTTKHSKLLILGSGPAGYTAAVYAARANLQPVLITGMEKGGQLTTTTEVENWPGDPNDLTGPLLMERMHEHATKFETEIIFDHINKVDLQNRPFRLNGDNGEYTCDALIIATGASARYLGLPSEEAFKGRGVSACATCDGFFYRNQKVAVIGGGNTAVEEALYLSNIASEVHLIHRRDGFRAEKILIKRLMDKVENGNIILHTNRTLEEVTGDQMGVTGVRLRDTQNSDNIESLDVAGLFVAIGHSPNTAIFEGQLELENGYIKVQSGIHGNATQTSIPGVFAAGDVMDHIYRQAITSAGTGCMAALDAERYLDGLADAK
Protocol: The TrxR (E.coli) inhibition assay was performed according to a previously published procedure. It is partly based on the procedure developed by Lu et al.[35] and detects the formation of 5-TNB (5-thionitrobenzoic acid). Solutions of E. coli TrxR (35.4 U/mL) and of its substrate thioredoxin (Trx) E. coli (156 µg/mL) (both purchased from Sigma-Aldrich and diluted with distilled water) and fresh stock solutions of the test compounds (in DMF) were prepared (1c was administered as suspension). TE buffer (Tris–HCl 50 mM, EDTA 1 mM, pH 7.5) containing graded concentrations of the respective compounds (20 µL) or buffer without compounds (20 µL, as control) were mixed with TrxR solution (10 µL), Trx solution (10 µL), and a solution of NADPH (200 µM) in TE buffer (100 µL) in a well on a 96-well plate. As blank solution, 200 µM NADPH in TE buffer (100 µL) mixed with a DMF/buffer mixture (40 µL) was used (final concentrations of DMF: 0.5% v/v). The solutions on the 96-well plate were incubated for 75 min at 25 °C with moderate shaking. A volume of 100 µL of a reaction mixture (TE buffer containing 200 µM NADPH and 5 mM DTNB) was added to each well to initiate the reaction. After thorough mixing, the formation of 5-TNB was monitored by a microplate reader at 405 nm in 35 s intervals (10 measurements). The values were corrected by subtraction of the values for the blank solution. The increase in concentration of 5-TNB followed a linear trend (r^2 ≥ 0.990) and the enzymatic activities were calculated as the gradients (increase in absorbance per second) thereof. Absence of interference with the assay components was confirmed by a negative control experiment for each test compound. The highest test compound concentration was used and the enzyme solution was replaced by TE buffer for this purpose. The IC50 values were calculated as the concentration of the compound decreasing the enzymatic activity of the positive control by 50% and are presented as the means and standard deviations of independent repeated experiments.

[12] = test system: Pseudomonas aeruginosa PA7 (DSM 24068); experiment: MIC broth dilution, aerobic bacteria; assay type: cell-based; conditions: 20 h at 37 °C, ± standard error, n ≥ 3, read-out: MIC, P.aeruginosa
Protocol: as §3

[13] = test system: Klebsiella pneumoniae (DSM 11678, ATCC33495); experiment: MIC broth dilution, aerobic bacteria; assay type: cell-based; conditions: 20 h at 37 °C, ± standard error, n ≥ 3, read-out: MIC, K. pneumoniae
Protocol: as §3

[14] = test system: Acinetobacter baumannii (DSM 30007, ATCC 19606); experiment: MIC broth dilution, aerobic bacteria; assay type: cell-based; conditions: 20 h at 37 °C, ± standard error, n ≥ 3
Protocol: as §3

[15] = test system: Enterococcus faecium (DSM 20477, ATCC 19434); experiment: MIC broth dilution, aerobic bacteria; assay type: cell-based; conditions: 20 h at 37 °C, ± standard error, n ≥ 3
Protocol: as §3

[16] = test system: Staphylococcus aureus MRSA (DSM 11822, ICB 25701); experiment: MIC broth dilution, aerobic bacteria; assay type: cell-based; conditions: 20 h at 37 °C, ± standard error, n ≥ 3
Protocol: as §3

## Cc1ncc([N+](=O)[O-])n1CCOC(=O)Cn1[c](=[Au][Cl])n(C)c2ccccc21 [Compound 2c, Chlorido-(1-methyl-3-(2-(2-(2-methyl-5-nitroimidazol-1-yl)ethoxy)-2-oxoethyl)-benzimidazol-2-yliden)gold(I)]
[1]; strain VPI10463, 6.25 µM, recovery of growth after extended exposure
  antibacterial effect at 6.25 µM: effective inhibitors
[1]; strain VPI10463, up to 100 µM, 48 h
  concentration leading to a complete block of bacterial growth without recovery: blocked bacterial growth at the same concentration
[2]; metronidazole-resistant strain IB136, up to 100 µM, 48 h
  concentration leading to a complete block of bacterial growth without recovery: blocked bacterial growth at the same concentration
[2]; resistant strain IB136, 6.25 µM
  antibacterial effect at 6.25 µM: strong effects with recovery of bacterial proliferation
[3]; 6.25 µM, recovery of growth after extended exposure
  antibacterial effect at 6.25 µM: effective inhibitors
[3]; up to 100 µM, 48 h
  concentration leading to a complete block of bacterial growth without recovery: blocked bacterial growth at the same concentration
[4]
  solubility in organic solvents: soluble in most organic solvents
[5]
  IC50: > 95 µM
[6]
  IC50: > 60 µM
[7]; MRSA and E. faecium, except for 1c in MRSA
  MIC values against Gram-positive strains: 37 to 44 µM
[7]; aerobic conditions
  activity against Gram-negative strains (in words): inactive
[8]
  IC50: 31.8 ± 4.1 µM
[9]
  IC50: 80.7 ± 5.9 µM
[10]
  IC50: 81.9 ± 2.8 µM
[11]
  IC50: 0.175 ± 0.017 µM
[12]
  MIC: > 111.2 µM
[13]
  MIC: > 111.2 µM
[14]
  MIC: > 111.2 µM
[15]
  MIC, E. faecium: 43.3 ± 16.0 µM
[16]
  MIC, MRSA: 37.1 ± 16.0 µM
